Tests used:
[1] = tested on: human lung cancer in lung of mice; test: Mouse model bearing human lung cancer in lung (A549 or Anti-Dox-A549 cells injected)
Description: The animal experiments were approved by the National Dong-Hwa University Animal Ethics Committee and the experimental protocols were used according to the “Guide for the Care and Use of Laboratory Animals” of National Dong-Hwa University. 1×10^7 of A549 cells or Anti-Dox-A549 cells were suspended in PBS to prepare cell suspensions. On day 0, C57/BL6 mice (6-8 weeks old, n=6) were weighted and anesthetic using pentobarbital (5 mg/ml). Then, the mice were injected with the cell suspension (1×10^7 cells per mouse) into the lung by IT. The injection was repeated every 7 days for 21 days. Another group of mice were injected with 10% EtOH as comparative group according to the same procedure set forth above.
After the establishment of human lung cancer in the experimental mice, the mice were maintained for one more week and then treated with HCD (0.0318 or 1.272 mg/kg body weight, in 10% ETOH with PBS), PG (0.1615 or 0.646 mg/kg body weight, in 10% ETOH with PBS) or 10% EtOH by IT injection (intrathecal injection) to the lung. The body weight was monitored every five days for thirty days. After thirty days, the mice were sacrificed and the lungs were checked for marker of human lung adenocarcinoma by H&E and IHC staining. The livers, kidneys and spleens of the mice were also examined to confirm the cytotoxicity of HCD and PG and to see if there was any metastasis happened.

A549 cells [2] = test: Cell cycle analysis by flow cytometer (PI staining); assay type: cell-based, human; details: for G0/G1 (%) / G2/M (%) / S (%) / Sub G1 (%): A549
Description: (§1) The results of Example 2 in cell viability hinted the effects of HCD, PG, and Dox on arresting cell cycle. In this example, the phase of cell cycle of A549 cells and Anti-Dox-A549 cells after the treatment listed in Table 1 was determined by flow cytometer. Briefly, 7×10^4 cells per well were to inoculated in 12-wells plate and incubated overnight at 37° C., 5% CO2. Then, cells were treated according to the treatment listed in Table 1 by indicated time period. After treatment, cells were harvested by trypsin and fixed with 70% ethanol at −20° C. for at least 3 hr. The cells were washed in cold PBS twice and then incubated with 1 ml (v/v) staining solution (20 μg/m1 propidium iodide (PI), 0.1% Triton X-100, 0.2 mg/ml Rnase) at 37° C. for 30 minutes. Lastly, cells were analyzed by flow cytometer (Cytomics™ FC500, Backman, Fullerton, Calif., USA). Data from 10,000 cells were collected for each experimental group.

Anti-Dox-A549 cells [3] = test: as above; assay type: cell-based, human; details: for G0/G1 (%) / G2/M (%) / S (%) / Sub G1 (%): Anti-Dox-A549
Description: as §1

A549 cells [4] = test: MTT assay, cell viability; assay type: cell-based, human
Description: (§2) A549 (lung cancer cell line, non-resistance) and Anti-Dox-A549 (lung cancer cell line with resistance to Doxorubicin) were maintained in DMEM supplemented with 10% fetal bovine serum (FBS, Gibco), pH 7.4, 37° C. and with continuous circulation of 5% CO2. The medium was changed every 2 days and the cells were trypsinized with trypsin/EDTA when reaching 80%-90% confluence.
(§3) A549 and Anti-Dox-A549 were treated by the following treatment (Table 1) for 24 or 48 hr for examining the effects of HCD, PG, and Dox on their viability.
(§4) Dox1is referred as Dox of 1 μM; Dox2.5 is referred as Dox of 2.5 μM; Dox5 is referred as Dox of 5 μM; Dox10 is referred as Dox of 10 μM; Dox100 is referred as Dox of 100 μM. HCD2.5 is referred as HCD of 2.5 μM; HCD10 is referred as HCD of 10 μM; HCD25 is referred as HCD of 25 μM; HCD50 is referred as HCD of 50 μM. PG2.5 is referred as PG of 2.5 μM; PG5 is referred as PG of 5 μM; PG10 is referred as PG of 10 μM; PG20 is referred as PG of 20 μM.
(§5) In this example, the effects of HCD, PG, and Dox on the viability of A549 and anti-Dox-A549 were examined. The MTT assay was employed for this purpose. The MTT (3-(4-,5-dimethylthiazol-2-yl)-2,5-diphenyltetrazolium bromide) assay is a common colorimetric method in the field for cell viability analysis. MTT (yellow tetrazolium salt) is reduced to a purple formazan by living cells and detection to the purple formazan can be calculated as the cell viability.
(§6) Briefly, cells (A549 or Anti-Dox-A549) were seeded in 96-well plate (7×10^3 cell per well) and incubated overnight (37° C., 5% CO2).

Anti-Dox-A549 cells [5] = test: MTT assay, cell viability; assay type: cell-based, human
Description: as §2, §3, §4, §5, §6

[6] = mice treated by IT injection to the lung, after thirty days, data not shown
[7] = pre-treatment (HCD especially 10 or 25 μM), then Dox 1 or 2.5 μM

With `CC1=CCCC2C1(C)CCC(C)C2(C)CCC1=CC(=O)OC1O` (stereo not drawn) [HCD, 16-hydroxy-cleroda-3,13-dine-15,16-olide] the “H&E and IHC staining of the lung” value ([1]; HCD 0.0318 or 1.272 mg/kg, PG 0.1615 or 0.646 mg/kg body weight, IT injection to the lung, after thirty days) was “less cell invention around blood vessels 1 and less cell accumulation 2 around the trachea 4”, the “body weight of the experimental mice” value ([1]; HCD 0.0318 or 1.272 mg/kg, PG 0.1615 or 0.646 mg/kg body weight, IT injection to the lung, monitored every five days for thirty days) was “did not show significantly change” and the “injury of livers, kidneys and spleens (staining)” value [1, 6] was “did not cause serious cytotoxicity”. For the same compound, the “metastasis in livers, kidneys and spleens” value [1, 6] was “no metastasis happened”, the “cell cycle effect compared with the control group” value (A549 cells [2]; A549 cells, Tables 3 and 5) was “increased cell cycle arrest at G2/M phase” and the “cell cycle effect of pre-treatment and subsequent Dox” value (A549 cells [2]; A549 cells, Tables 9 and 11) was “increased sub G1 phase and arrested at G2/M phase”. For the same compound, the “G0/G1 (%)” value (A549 cells [2]; HCD 2.5 μM, 24 hr) was 77.3 ± 0.9%, the “G2/M (%)” value (A549 cells [2]; HCD 2.5 μM, 24 hr) was 9.7 ± 0.9% and the “S (%)” value (A549 cells [2]; HCD 2.5 μM, 24 hr) was 9.6 ± 0.5%. For the same compound, the “Sub G1 (%)” value (A549 cells [2]; HCD 2.5 μM, 24 hr) was 1.0 ± 0.2%, the “G0/G1 (%)” value (A549 cells [2]; HCD 2.5 μM, 36 hr) was 74.4 ± 2.6 % and the “G2/M (%)” value (A549 cells [2]; HCD 2.5 μM, 36 hr) was 11.8 ± 0.9%. For the same compound, the “S (%)” value (A549 cells [2]; HCD 2.5 μM, 36 hr) was 9.5 ± 0.4 %, the “Sub G1 (%)” value (A549 cells [2]; HCD 2.5 μM, 36 hr) was 1.1 ± 0.1% and the “G0/G1 (%)” value (A549 cells [2]; HCD 2.5 μM, 48 hr) was 80.4 ± 0.2%. The “G2/M (%)” value (A549 cells [2]; HCD 2.5 μM, 48 hr) was 8.9 ± 0.1%, the “S (%)” value (A549 cells [2]; HCD 2.5 μM, 48 hr) was 6.9 ± 0.1% and the “Sub G1 (%)” value (A549 cells [2]; HCD 2.5 μM, 48 hr) was 1.8 ± 0.2%. For the same compound, the “G0/G1 (%)” value (A549 cells [2]; HCD 10 μM, 24 hr) was 85.6 ± 6.9 %, the “G2/M (%)” value (A549 cells [2]; HCD 10 μM, 24 hr) was 6.1 ± 0.5 % and the “S (%)” value (A549 cells [2]; HCD 10 μM, 24 hr) was 3.9 ± 2.8 %. The “Sub G1 (%)” value (A549 cells [2]; HCD 10 μM, 24 hr) was 1 ± 0.2%, the “G0/G1 (%)” value (A549 cells [2]; HCD 10 μM, 36 hr) was 75.4 ± 1.8% and the “G2/M (%)” value (A549 cells [2]; HCD 10 μM, 36 hr) was 10.0 ± 1.2%. The “S (%)” value (A549 cells [2]; HCD 10 μM, 36 hr) was 10.7 ± 0.4 %, the “Sub G1 (%)” value (A549 cells [2]; HCD 10 μM, 36 hr) was 1.4 ± 0.2% and the “G0/G1 (%)” value (A549 cells [2]; HCD 10 μM, 48 hr) was 75.6 ± 1.8%. The “G2/M (%)” value (A549 cells [2]; HCD 10 μM, 48 hr) was 11.2 ± 0.2 %, the “S (%)” value (A549 cells [2]; HCD 10 μM, 48 hr) was 8.7 ± 0.2% and the “Sub G1 (%)” value (A549 cells [2]; HCD 10 μM, 48 hr) was 1.8 ± 0.2%. For the same compound, the “G0/G1 (%)” value (A549 cells [2]; HCD 25 μM, 24 hr) was 62.9 ± 3.3%, the “G2/M (%)” value (A549 cells [2]; HCD 25 μM, 24 hr) was 22.8 ± 3.0 % and the “S (%)” value (A549 cells [2]; HCD 25 μM, 24 hr) was 11.1 ± 1.3%. The “Sub G1 (%)” value (A549 cells [2]; HCD 25 μM, 24 hr) was 1.5 ± 0.2%, the “G0/G1 (%)” value (A549 cells [2]; HCD 25 μM, 36 hr) was 62.3 ± 1.3 % and the “G2/M (%)” value (A549 cells [2]; HCD 25 μM, 36 hr) was 22.8 ± 1.5 %. The “S (%)” value (A549 cells [2]; HCD 25 μM, 36 hr) was 9.2 ± 0.7 %, the “Sub G1 (%)” value (A549 cells [2]; HCD 25 μM, 36 hr) was 2.7 ± 0.1 % and the “G0/G1 (%)” value (A549 cells [2]; HCD 25 μM, 48 hr) was 61.7 ± 1.2 %. The “G2/M (%)” value (A549 cells [2]; HCD 25 μM, 48 hr) was 22.7 ± 0.5 %, the “S (%)” value (A549 cells [2]; HCD 25 μM, 48 hr) was 7.9 ± 1.3% and the “Sub G1 (%)” value (A549 cells [2]; HCD 25 μM, 48 hr) was 1.9 ± 0.5 %. For the same compound, the “cell cycle effect compared with the control group” value (Anti-Dox-A549 cells [3]; Anti-Dox-A549 cells, Tables 2 and 4) was “increased cell cycle arrest at G2/M phase”, the “cell cycle effect of pre-treatment and subsequent Dox” value (Anti-Dox-A549 cells [3]; Anti-Dox-A549 cells, Tables 8 and 10) was “increased sub G1 phase and arrested at G2/M phase” and the “G0/G1 (%)” value (Anti-Dox-A549 cells [3]; HCD 2.5 μM, 24 hr) was 68.2 ± 2.8%. For the same compound, the “G2/M (%)” value (Anti-Dox-A549 cells [3]; HCD 2.5 μM, 24 hr) was 16.5 ± 1.8%, the “S (%)” value (Anti-Dox-A549 cells [3]; HCD 2.5 μM, 24 hr) was 12.1 ± 0.8% and the “Sub G1 (%)” value (Anti-Dox-A549 cells [3]; HCD 2.5 μM, 24 hr) was 0.63 ± 0.05%. The “G0/G1 (%)” value (Anti-Dox-A549 cells [3]; HCD 2.5 μM, 36 hr) was 80.3 ± 0.6%, the “G2/M (%)” value (Anti-Dox-A549 cells [3]; HCD 2.5 μM, 36 hr) was 9.6 ± 0.3% and the “S (%)” value (Anti-Dox-A549 cells [3]; HCD 2.5 μM, 36 hr) was 7.4 ± 0.2%. For the same compound, the “Sub G1 (%)” value (Anti-Dox-A549 cells [3]; HCD 2.5 μM, 36 hr) was 0.93 ± 0.2%, the “G0/G1 (%)” value (Anti-Dox-A549 cells [3]; HCD 2.5 μM, 48 hr) was 82.1 ± 0.7% and the “G2/M (%)” value (Anti-Dox-A549 cells [3]; HCD 2.5 μM, 48 hr) was 8.9 ± 0.7%. The “S (%)” value (Anti-Dox-A549 cells [3]; HCD 2.5 μM, 48 hr) was 6.1 ± 0.3%, the “Sub G1 (%)” value (Anti-Dox-A549 cells [3]; HCD 2.5 μM, 48 hr) was 1.56 ± 0.2% and the “G0/G1 (%)” value (Anti-Dox-A549 cells [3]; HCD 10 μM, 24 hr) was 83.6 ± 1.4 %. The “G2/M (%)” value (Anti-Dox-A549 cells [3]; HCD 10 μM, 24 hr) was 6.6 ± 0.55 %, the “S (%)” value (Anti-Dox-A549 cells [3]; HCD 10 μM, 24 hr) was 7.0 ± 0.6% and the “Sub G1 (%)” value (Anti-Dox-A549 cells [3]; HCD 10 μM, 24 hr) was 0.73 ± 0.05%. For the same compound, the “G0/G1 (%)” value (Anti-Dox-A549 cells [3]; HCD 10 μM, 36 hr) was 75.8 ± 0.3 %, the “G2/M (%)” value (Anti-Dox-A549 cells [3]; HCD 10 μM, 36 hr) was 11.8 ± 1.0 % and the “S (%)” value (Anti-Dox-A549 cells [3]; HCD 10 μM, 36 hr) was 9.2 ± 0.4 %. The “Sub G1 (%)” value (Anti-Dox-A549 cells [3]; HCD 10 μM, 36 hr) was 1 ± 0.2%, the “G0/G1 (%)” value (Anti-Dox-A549 cells [3]; HCD 10 μM, 48 hr) was 82.2 ± 0.7% and the “G2/M (%)” value (Anti-Dox-A549 cells [3]; HCD 10 μM, 48 hr) was 8.3 ± 0.2%. The “S (%)” value (Anti-Dox-A549 cells [3]; HCD 10 μM, 48 hr) was 6.4 ± 0.3%, the “Sub G1 (%)” value (Anti-Dox-A549 cells [3]; HCD 10 μM, 48 hr) was 1.76 ± 0.1% and the “G0/G1 (%)” value (Anti-Dox-A549 cells [3]; HCD 25 μM, 24 hr) was 70.5 ± 2.7%. The “G2/M (%)” value (Anti-Dox-A549 cells [3]; HCD 25 μM, 24 hr) was 19.3 ± 1.7 %, the “S (%)” value (Anti-Dox-A549 cells [3]; HCD 25 μM, 24 hr) was 7.9 ± 0.8 % and the “Sub G1 (%)” value (Anti-Dox-A549 cells [3]; HCD 25 μM, 24 hr) was 1.3 ± 0.1 %. For the same compound, the “G0/G1 (%)” value (Anti-Dox-A549 cells [3]; HCD 25 μM, 36 hr) was 73.9 ± 2.7 %, the “G2/M (%)” value (Anti-Dox-A549 cells [3]; HCD 25 μM, 36 hr) was 17.7 ± 1.9 % and the “S (%)” value (Anti-Dox-A549 cells [3]; HCD 25 μM, 36 hr) was 5.4 ± 0.9%. The “Sub G1 (%)” value (Anti-Dox-A549 cells [3]; HCD 25 μM, 36 hr) was 3.43 ± 0.2 %, the “G0/G1 (%)” value (Anti-Dox-A549 cells [3]; HCD 25 μM, 48 hr) was 3.73 ± 1.6 % and the “G2/M (%)” value (Anti-Dox-A549 cells [3]; HCD 25 μM, 48 hr) was 21.8 ± 2.4 %. For the same compound, the “S (%)” value (Anti-Dox-A549 cells [3]; HCD 25 μM, 48 hr) was 11.2 ± 1.3 %, the “Sub G1 (%)” value (Anti-Dox-A549 cells [3]; HCD 25 μM, 48 hr) was 27.2 ± 0.5 % and the IC50 (A549 cells [4]; 24 hr treatment) was roughly 50 µM. For the same compound, the “effect of pre-treatment on the effects of Dox on cell viability” value (A549 cells [4]; [7]) was “enhance the effects of Dox on viability”, the IC50 (Anti-Dox-A549 cells [5]; 24 hr treatment) was roughly 50 µM and the “effect of pre-treatment on the effects of Dox on cell viability” value (Anti-Dox-A549 cells [5]; [7]) was “rescue the sensitivity of Anti-Dox-A549 cells to Dox”.
